2 compounds from patent US5328899A, “NPY peptide analogs” (The Salk Institute for Biological Studies, priority 1992, dated 1994) can be followed below.

One experiment has as its system conscious rats. Nature of the experiment: Effect on mean arterial blood pressure (MAP) and heart rate after intra-arterial injection in conscious rats. The class given is in vivo, rat. As for the experimental part:
(§1) Saline solutions of the peptides are injected intra-arterially into conscious rats, and arterial pressure is monitored via an indwelling femoral cannula directly coupled to a pressure transducer. […] Control animals receive saline vehicle alone.
Saline solutions of the peptides were administered intraarterially in a 100-μL bolus in an amount equal to about 0.4 mg/Kg body weight.

For the next experiment, the system named is intracellular Ca++. Put plainly: Elevation of intracellular Ca++ concentrations. It counts as cell-based. The conditions noted are these: 100 nM NPY after 100 nM NPY (18-36).
The subject of experiment [1] is hypertensive actions of NPY. Put plainly: NPY-induced increase in MAP in animals pretreated with NPY(18-36). The class given is in vivo, rat. The conditions noted are these: NPY 1 μg intra-arterially, 3 animals. Here is the method:
as §1

Consider `CC[C@H](C)[C@H](NC(=O)[C@H](Cc1ccc(O)cc1)NC(=O)[C@H](Cc1c[nH]cn1)NC(=O)[C@H](CCCNC(=N)N)NC(=O)[C@H](CC(C)C)NC(=O)[C@H](C)NC(=O)[C@H](CO)NC(=O)[C@H](Cc1ccc(O)cc1)NC(=O)[C@H](Cc1ccc(O)cc1)NC(=O)[C@H](CCCNC(=N)N)NC(=O)[C@H](C)NC(=O)[C@@H](N)CC(C)C)C(=O)N[C@@H](CC(N)=O)C(=O)N[C@@H](CC(C)C)C(=O)N[C@H](C(=O)N[C@H](C(=O)N[C@@H](CCCNC(=N)N)C(=O)N[C@@H](CCC(N)=O)C(=O)N[C@@H](CCCNC(=N)N)C(=O)N[C@@H](Cc1ccc(O)cc1)C(N)=O)[C@@H](C)O)[C@@H](C)CC` [pNPY(17-36)], for which the “decrease in MAP at five and ten minutes after administration” value in the experiment with conscious rats was “significantly decrease MAP”.
On to Neuropeptide Y [NPY], for which, in the experiment on intracellular Ca++, the “elevation of intracellular Ca++ by NPY after addition of NPY(18-36)” value is “to the same extent as under control conditions”. For the same compound, the entries for the “increase in MAP obtained by NPY administration” value in experiment [1] (animals pretreated with NPY(18-36) 300 μg) and in experiment [1] (control animals) were 28±5 mmHg and 32±5 mmHg, respectively.
